# Columns and labels:
# [1] = molecular target: T1, PfPGI (cupin-type phosphoglucose isomerase) (Pyrococcus furiosus, UniProt P83194, P132R/Y133G); experiment: EPR of Mn2+ coordination on adding F6P; type: binding; conditions: 10 mM F6P, 0.2 mM MnCl2, pH 8.0; spectra at 13 K
# T1 construct: gene pgiA; pgiA in pET24d, expressed in E. coli, heat treatment plus Q-Sepharose and Superdex 200
# [2] = molecular target: T2, PfPGI (cupin-type phosphoglucose isomerase) (Pyrococcus furiosus, UniProt P83194, P132A/Y133D); experiment: EPR of Mn2+ coordination on adding F6P; type: binding; conditions: 10 mM F6P, 0.2 mM MnCl2, pH 8.0; spectra at 13 K; F6P not seen in the crystal structure
# T2 construct: gene pgiA; pgiA in pET24d, expressed in E. coli, heat treatment plus Q-Sepharose and Superdex 200
# [3] = molecular target: T3, PfPGI (cupin-type phosphoglucose isomerase) (Pyrococcus furiosus, UniProt P83194, P132A/Y133G); experiment: EPR of Mn2+ coordination on adding F6P; type: binding; conditions: 10 mM F6P, 0.2 mM MnCl2, pH 8.0; spectra at 13 K
# T3 construct: gene pgiA; pgiA in pET24d, expressed in E. coli, heat treatment plus Q-Sepharose and Superdex 200
# [4] = molecular target: T1, PfPGI (cupin-type phosphoglucose isomerase); experiment: X-ray crystal structure; type: binding; conditions: Mn2+ in active site; 5PAA formed from F6P in the crystallization solution; pH 5.5
# [5] = molecular target: the molecule itself; experiment: crystal structure; PfPGI mutants at 11.5 mg/mL in 10 mM Tris/HCl pH 8.0, 50 mM F6P, 5 mM MnCl2; molecular replacement with wild-type PfPGI (PDB 1X82); RG, AD and VY with chains A and B, AG with the two subunits related by crystal symmetry
Molecule,binding result [5],other results
"O=P(O)(O)OC[C@H]1OC(O)(CO)[C@@H](O)[C@@H]1O (some centres unmarked) [F6P, fructose-6-phosphate]",,EPR of Mn2+ coordination on adding F6P [1]: addition of F6P to any of the manganese-containing PfPGI mutants lead to a collapse; EPR of Mn2+ coordination on adding F6P [2]: addition of F6P to any of the manganese-containing PfPGI mutants lead to a collapse; EPR of Mn2+ coordination on adding F6P [3]: addition of F6P to any of the manganese-containing PfPGI mutants lead to a collapse
"O=C(O)[C@@H](O)[C@H](O)[C@H](O)COP(=O)(O)O [5PAA, 5-phosphoarabinonic acid]",,"X-ray crystal structure [4]: 5-phosphoarabinonic acid (5PAA), rather than F6P (as added to the crystallization mixture) was bound"
"PfPGI mutant P132R/Y133G (cupin-type phosphoglucose isomerase of Pyrococcus furiosus) (enzyme, cupin-type phosphoglucose isomerase (PfPGI, EC 5.3.1.9), gene pgiA, Pyrococcus furiosus; monomeric subunit 21.5 kDa; the models have no missing residues, residues up to Lys189 are named; Crystallised with MnCl2 and F6P; 5PAA found in the active site; also called RG; mutant RG; source: E. coli (pET24d), overexpressed and purified as described previously [32]) MYKEPFGVKVDFETGIIEGAKKSVRRLSDMEGYFVDERAWKELVEKEDPVVYEVYAVEQEEKEGDLNFATTVLYPGKVGKEFFFTKGHFHAKLDRAEVYVALKGKGGMLLQTPEGDAKWISMEPGTVVYVPRGWAHRTVNIGDEPFIFLAIYPADAGHDYGTIAEKGFSKIVIEENGEVKVVDNPRWKK",binds,
"PfPGI mutant P132V (cupin-type phosphoglucose isomerase of Pyrococcus furiosus) (enzyme, cupin-type phosphoglucose isomerase (PfPGI, EC 5.3.1.9), gene pgiA, Pyrococcus furiosus; monomeric subunit 21.5 kDa; the models have no missing residues, residues up to Lys189 are named; Crystals grown with MnCl2 and soaked with F6P; also called VY; mutant VY; source: E. coli (pET24d), overexpressed and purified as described previously [32]) MYKEPFGVKVDFETGIIEGAKKSVRRLSDMEGYFVDERAWKELVEKEDPVVYEVYAVEQEEKEGDLNFATTVLYPGKVGKEFFFTKGHFHAKLDRAEVYVALKGKGGMLLQTPEGDAKWISMEPGTVVYVPVYWAHRTVNIGDEPFIFLAIYPADAGHDYGTIAEKGFSKIVIEENGEVKVVDNPRWKK",binds,
"PfPGI mutant P132A/Y133G (cupin-type phosphoglucose isomerase of Pyrococcus furiosus) (enzyme, cupin-type phosphoglucose isomerase (PfPGI, EC 5.3.1.9), gene pgiA, Pyrococcus furiosus; monomeric subunit 21.5 kDa; the models have no missing residues, residues up to Lys189 are named; Crystallised with MnCl2 and F6P; 5PAA found in the active site; The two subunits of the dimer are related by crystal symmetry; also called AG; mutant AG; source: E. coli (pET24d), overexpressed and purified as …) MYKEPFGVKVDFETGIIEGAKKSVRRLSDMEGYFVDERAWKELVEKEDPVVYEVYAVEQEEKEGDLNFATTVLYPGKVGKEFFFTKGHFHAKLDRAEVYVALKGKGGMLLQTPEGDAKWISMEPGTVVYVPAGWAHRTVNIGDEPFIFLAIYPADAGHDYGTIAEKGFSKIVIEENGEVKVVDNPRWKK",binds,
"PfPGI mutant P132A/Y133D (cupin-type phosphoglucose isomerase of Pyrococcus furiosus) (enzyme, cupin-type phosphoglucose isomerase (PfPGI, EC 5.3.1.9), gene pgiA, Pyrococcus furiosus; monomeric subunit 21.5 kDa; the models have no missing residues, residues up to Lys189 are named; Structure holds only Mn2+ in the active site; also called AD; mutant AD; source: E. coli (pET24d), overexpressed and purified as described previously [32]) MYKEPFGVKVDFETGIIEGAKKSVRRLSDMEGYFVDERAWKELVEKEDPVVYEVYAVEQEEKEGDLNFATTVLYPGKVGKEFFFTKGHFHAKLDRAEVYVALKGKGGMLLQTPEGDAKWISMEPGTVVYVPADWAHRTVNIGDEPFIFLAIYPADAGHDYGTIAEKGFSKIVIEENGEVKVVDNPRWKK",binds,

# Source: article PMC6627849, “Distant Non-Obvious Mutations Influence the Activity of a Hyperthermophilic Pyrococcus furiosus Phosphoglucose Isomerase” (Biomolecules, 2019)
